Patent US8017391B2, “Human liver cancer cell line” (Univesity of Florida Research Foundation, Inc., priority 2006, dated 2011)

Test system: LH86 cells or Huh7.5 cells
Assay: Tumor growth of implanted HCV susceptible cell lines in immune deficient mice
Type: in vivo
Conditions: injection of human EGF to NOD-SCID mice bearing subcutaneous tumor cells
Description: To establish a mouse model that is capable of supporting the whole viral life cycle, the present inventors implanted HCV susceptible cell lines (LH86 cells of the present invention or Huh7.5 cells) to immune deficient mice (NOD-SCID). When 1×10^6 cells were injected subcutaneously into the mice, visible tumor (0.5 cm) formed in one week, and the tumor continued to grow to 5 cm in size in 6 weeks. For LH86 cells, 5×10^6 tumor cells must be injected to achieve a similar tumor growth pattern.

## human EGF: human EGF injected to mice (NSDSECPLSHDGYCLHDGVCMYIEALDKYACNCVVGYIGERCQYRDLKWWELR; UniProt P01133 971-1023, looked up)
  tumor growth rate: significantly accelerate
